In BigSolDB 2.1:

CCOC(=O)C1=C[C@]2(CC)CCCN3CCc4c(n1c1ccccc41)[C@@H]32
solubility (mole fraction)
Settings | in 2-butanone | in cyclohexane | in ethanol | in ethyl acetate | in isopropanol | in methanol | in methyl acetate | in n-butanol | in n-propanol
283.15 K | 0.00526 | 0.00133 | 0.000492 | 0.0039 | 0.000345 | 0.000378 | 0.00262 | 0.000936 | 0.000727
288.15 K | 0.00649 | 0.0017 | 0.000641 | 0.00481 | 0.000474 | 0.000476 | 0.00329 | 0.00127 | 0.00098
293.15 K | 0.00793 | 0.00216 | 0.00082 | 0.00585 | 0.000643 | 0.000608 | 0.00416 | 0.0017 | 0.00126
298.15 K | 0.00962 | 0.00274 | 0.00101 | 0.00718 | 0.000834 | 0.000736 | 0.00517 | 0.0022 | 0.00164
303.15 K | 0.0118 | 0.00346 | 0.00126 | 0.00879 | 0.00108 | 0.00089 | 0.00646 | 0.00285 | 0.00208
308.15 K | 0.0142 | 0.00433 | 0.00158 | 0.0106 | 0.00137 | 0.0011 | 0.00794 | 0.00374 | 0.00268
313.15 K | 0.017 | 0.00537 | 0.00197 | 0.0127 | 0.00184 | 0.00136 | 0.00973 | 0.0048 | 0.00343
318.15 K | 0.0203 | 0.00656 | 0.00245 | 0.0154 | 0.00245 | 0.00166 | 0.0121 | 0.00632 | 0.00435
323.15 K | 0.0239 | 0.00802 | 0.00302 | 0.0185 | 0.00323 | 0.00204 | 0.0148 | 0.00806 | 0.00528
